Results published in US12201626B2, “Bifunctional compositions for the treatment of cancer” (ARMACEUTICA, INC., priority 2018, dated 2025).
“Also recorded” adds a separate entry of the source.

Legend:
topoisomerase II = molecular target: T1, topoisomerase II (Homo sapiens, UniProt P11388); experiment: TopoGen Topoisomerase II Assay Kit (kDNA decatenation); type: biochemical; settings: kDNA plus topoisomerase II; 5, 50, 500 μM PND
T1 construct: purchased TopoGen
Text: FIG. 3. Transcriptome analyses of possible pathways activated by pyronaridine (PND) and target validation. […] Pearson correlation analysis of the transcriptional signature of PND compared to the signatures deposited in LINCS project. Compounds marked correlate with the effects of PND, wherein darker the fill, the better the correlation. […] Lane 1, catenated kinetoplast DNA (kDNA); Lane 2, decatenated kDNA; Lane 3, linear kDNA; Lane 4, kDNA plus topoisomerase II; Lane 5, kDNA plus topoisomerase plus 5 μM of PND; Lane 6, kDNA plus topoisomerase plus 50 μM of PND; Lane 7, kDNA plus topoisomerase plus 500 μM of PND; Lane 8, kDNA plus topoisomerase II plus 1 mM etoposoide (Topo II inhibitor); Lane 9, kDNA plus topoisomerase ii plus PBS; 10, kDNA plus topoisomerase II plus DMSO.
In order to explore the possible Mechanism of Action (MoA) of PND, the transcriptome results for each cell line obtained were compared with the gene-expression data from the LINCS project (http://www.lincsproject.org), that contains the gene-expression profiles from various human cells treated with FDA-approved and withdrawn compounds as well as different well-characterized chemical reagents. It was reasoned that the expression profile of each lead compound should also induce a cellular gene expression response consistent with a known MoA of drugs deposited in LINCS. […]

HL-60 cells = experiment: Cell cycle profile and DNA fragmentation, DAPI flow cytometry; type: cell-based, human; settings: 72 h
Procedure: Asynchronous cultures in the exponential growth phase of MDA-MB-231 and HL-60 cells in 24-well plates were treated with several doses of PND. After 72 h of incubation, cells were centrifuged and treated as in the previous section, fixed, permeabilized and stained with a DNA intercalating fluorophore, 4,6-Diamidino-2-phenylindole (DAPI); those three steps were accomplished by adding to the cells 200 μl of a single nuclear isolation medium (NIM)-DAPI solution (Beckman Coulter). The cell suspension was then incubated for an additional 3 min at room temperature in the dark. The controls included in the series of experiments were similar to those described for the above experiments. Approximately, 20,000 events/cells were collected per sample by using a flow cytometer equipped with a solid state 405 nm laser (Gallios; Beckman Coulter). The acquisition and distribution of cell subpopulations within each cell cycle facets were accomplished by utilizing Kaluza flow cytometry software (Beckman Coulter). Additionally, doublets were effectively eliminated by including a single cells gate in the acquisition cell cycle protocol.

Calf Thymus DNA = experiment: UV-Visible spectrophotometric titration; type: binding; settings: PND 22.8 μM, Tris/HCl buffer, CT DNA additions
Procedure: UV-Visible measurements were taken in a Varian Cary 100 spectrophotometer. Calf Thymus (CT) DNA and buffers were purchased from Sigma Aldrich. The binding constant of PND with CT DNA was determined by absorption titration at room temperature through stepwise addition of a CT DNA solution (10.1 mM; 5 μL additions) in buffer (5 mM Tris/HCl, 50 mM NaCl, pH=7.39) over a 2 mL working solution of PND (22.8 μM) in the same buffer. Absorption spectra were recorded at 424 nm and the titration was terminated when saturation was reached. In order to determine the binding affinity, the data was fitted to the Scatchard equation r/Cf=K(n−r) (McGhee and von Hippel plots), where r is the number of moles of PND bound to 1 mol of CT DNA, n is the number of equivalent binding sites, and K is the affinity of the complex for those binding sites. Concentrations of free (Cf) and bound (Cb) complexes were calculated from Cf=C(1−α) and Cb=C−Cf, respectively, where C is the total PND concentration. The fraction of the bound complex (α) was calculated from α=(Af−A)/(Af−Ab), where Af and Ab are the absorbances of the free and fully bound drug at the selected wavelengths, and A is the absorbance at any given point during the titration. The plot of r/Cf vs. r gives the binding constant Kb as the slope of the graph. All experiments were performed in triplicate and values of Kb were averaged.

[1] = tested on: malignancy that was metastatic or unresectable; experiment: Open-label study of oral PND in terminally-ill canine cancer patients; type: in vivo
Text: Due to ethical concerns of treating terminally-ill dogs, there was no placebo group.
The secondary outcomes were: anti-tumor activity, malignancy-associated symptom relief, and the safety and tolerability of PND.
Case 1, Mast cell carcinoma: Dog (Golden Retriever), female, 6 years old, 28.7 kg. Cancer was confirmed by histopathology report. In mid-May 2019 the administration of oral PND to the dog began after which patient received no other cancer medication. Veterinarian expected survival length of between 4 and 6 months at the time of study entry. Patient received 23 mg/kg/day PND (325 mg in the morning and 325 mg in the evening).
Case 2, Osteosarcoma: Dog (Saint Bernard), male, 5 years old, 49.7 kg. On 17 May 2019 the administration of oral PND began after which the patient received no other cancer medication. The veterinarian expected a survival length of between 4 and 6 months at the time of study entry. Patient received 20 mg/kg/day PND (325 mg in the morning and 650 mg in the evening).
Case 3, spindle cell sarcoma: Dog (Border Collie), male, 9 years old, 28.5 kg. In 2014 the dog was diagnosed with a low-grade spindle cell sarcoma, and was due to be euthanized on 11 Feb. 2019, with a life expectancy of 1-2 weeks. Instead, the veterinarian began the administration of oral PND on 11 Feb. 2019 after which patient received no other cancer medication. Patient received 15 mg/kg/day PND (215 mg in the morning and 215 mg in the evening).
Case 4, non-Hodgkin lymphoma: Dog (Boxer), female, 27 kg, 11 years old. Cancer was confirmed by biopsy report. In December 2018 the administration of oral PND to the dog began after which patient received no other cancer medication. Patient received 15 mg/kg/day PND (210 mg in the morning and 210 mg in the evening). However, the administration of PND stopped in February 2019 (due to shipping problems from the USA to Canada) and never resumed.
Case 5, mast cell tumor: Dog, male, 27.9 kg. Cancer was confirmed by histopathology report. A tumor was surgically excised from tongue, and there was no clean border. In December 2018 the administration of oral PND began after which the patient received no other cancer medication. Patient received 15 mg/kg/day PND (210 mg in the morning and 210 mg in the evening).

T1 sequence (P11388 whole entry): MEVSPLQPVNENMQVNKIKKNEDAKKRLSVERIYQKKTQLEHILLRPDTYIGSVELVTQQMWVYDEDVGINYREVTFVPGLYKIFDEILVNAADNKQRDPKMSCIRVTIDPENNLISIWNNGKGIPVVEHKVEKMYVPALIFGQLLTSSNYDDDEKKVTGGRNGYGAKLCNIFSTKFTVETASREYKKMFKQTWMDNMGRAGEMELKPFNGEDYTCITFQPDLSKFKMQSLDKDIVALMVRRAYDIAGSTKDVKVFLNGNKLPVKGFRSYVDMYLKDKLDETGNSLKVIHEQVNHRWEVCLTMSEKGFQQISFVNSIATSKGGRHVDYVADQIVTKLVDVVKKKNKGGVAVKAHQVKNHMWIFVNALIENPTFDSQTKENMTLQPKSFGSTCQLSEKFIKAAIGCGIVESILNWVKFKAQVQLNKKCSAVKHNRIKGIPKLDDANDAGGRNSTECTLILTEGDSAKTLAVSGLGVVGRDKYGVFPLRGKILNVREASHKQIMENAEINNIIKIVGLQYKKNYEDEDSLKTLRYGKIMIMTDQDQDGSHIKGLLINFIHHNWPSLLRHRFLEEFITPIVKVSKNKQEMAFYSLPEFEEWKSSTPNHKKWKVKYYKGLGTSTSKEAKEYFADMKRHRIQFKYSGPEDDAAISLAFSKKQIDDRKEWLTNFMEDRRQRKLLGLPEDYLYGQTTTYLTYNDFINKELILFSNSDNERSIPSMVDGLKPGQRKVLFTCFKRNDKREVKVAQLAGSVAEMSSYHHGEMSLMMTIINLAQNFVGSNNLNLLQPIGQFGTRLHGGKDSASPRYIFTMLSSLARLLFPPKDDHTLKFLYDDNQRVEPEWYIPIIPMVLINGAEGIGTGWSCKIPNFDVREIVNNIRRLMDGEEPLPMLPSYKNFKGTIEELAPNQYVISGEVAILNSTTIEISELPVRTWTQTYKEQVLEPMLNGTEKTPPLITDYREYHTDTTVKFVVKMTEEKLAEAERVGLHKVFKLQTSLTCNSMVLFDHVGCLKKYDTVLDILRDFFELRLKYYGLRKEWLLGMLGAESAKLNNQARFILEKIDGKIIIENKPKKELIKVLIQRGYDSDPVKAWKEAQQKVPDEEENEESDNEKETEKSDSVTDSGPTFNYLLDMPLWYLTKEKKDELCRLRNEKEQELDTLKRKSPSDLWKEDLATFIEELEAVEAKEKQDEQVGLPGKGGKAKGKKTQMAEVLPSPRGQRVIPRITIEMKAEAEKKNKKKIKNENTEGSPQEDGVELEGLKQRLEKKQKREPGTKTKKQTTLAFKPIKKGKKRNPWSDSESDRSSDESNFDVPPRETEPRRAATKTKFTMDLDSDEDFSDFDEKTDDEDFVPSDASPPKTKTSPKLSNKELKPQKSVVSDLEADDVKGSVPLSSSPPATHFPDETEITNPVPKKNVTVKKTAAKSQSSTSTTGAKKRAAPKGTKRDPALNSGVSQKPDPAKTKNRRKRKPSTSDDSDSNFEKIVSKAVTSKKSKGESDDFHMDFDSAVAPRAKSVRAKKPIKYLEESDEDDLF

## COC1=CC=C2Nc3cc(Cl)ccc3C(N=C3C=C(CN4CCCC4)C(=O)C(CN4CCCC4)=C3)=C2N1 [PND, 4-[(7-chloro-2-methoxy-1,5-dihydrobenzo[b][1,5]naphthyridin-10-yl)imino]-2,6-bis(pyrrolidin-1-ylmethyl)cyclohexa-2,5-dien-1-one]
Topoisomerase II
  inhibition of topoisomerase II activity: activity of PND as a Topoisomerase inhibitor was confirmed; also recorded: inhibition of the topoisomerase II activity in a dose-dependent manner
HL-60 cells
  decrease of G0/G1 cell subpopulation: not observed
HL-60 cells; concentration-dependent, P<0.0005
  DNA fragmentation (sub-G0/G1 subpopulation): significant increase
HL-60 cells; vs PBS and untreated controls
  S and G2/M subpopulations: decreased
Calf Thymus DNA
  hypochromic effect at 424 nm: 39%
  red-shift of absorbance maximum at 424 nm: 8 nm
[1]; Case 1, mast cell carcinoma, 23 mg/kg/day oral
  study-drug related adverse events: no reports of any study-drug related adverse events
[1]; Case 1, as of June 2019, start mid-May 2019
  survival status: still alive
[1]; Case 2, osteosarcoma, 20 mg/kg/day oral, resolved with diphenhydramine
  possible study-drug related adverse events: drooling, facial swelling, and vomiting
[1]; Case 2, at June 2019, start 17 May 2019
  survival status: still alive
[1]; Case 3, spindle cell sarcoma, 15 mg/kg/day oral
  study-drug related adverse events: no reports of any study-drug related adverse events except initial vomiting
[1]; Case 3, life expectancy 1-2 weeks at entry
  survival lengthened by: 3 months
[1]; Case 3, three tumors
  reduction of volume of each tumor at follow-up: approximately 20%
[1]; Case 4
  survival lengthened by: 2.5 months
[1]; Case 4, non-Hodgkin lymphoma, 15 mg/kg/day oral
  study-drug related adverse events: no reports of any study-drug related adverse events
[1]; Case 4, neck tumor, by March 2019
  tumor shrinkage: 70%
[1]; Case 5, mast cell tumor, 15 mg/kg/day oral, 2 cm×1 cm versus 2 cm×1 cm
  tumor volume at follow-up: remained the same volume
[1]; Case 5, as of June 2019, start December 2018
  survival status: still alive
